Test results taken from PubChem BioAssay (NCI).
“And” between values parts separate entries of the source, which are not always exact repeats. Identical values can stand only once.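 Cultured in 96-well plates, cells were exposed to test compound for 48 hours across five concentrations. At the GI50, growth is halved. TGI is the concentration that stops growth completely.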

Columns and labels:
Assay in all cases: growth of human tumour cells (NCI), 48 h
SW-620 colon = tested on: SW-620 colon
SF-295 CNS = tested on: SF-295 CNS
HOP-62 NSCLC = tested on: HOP-62 NSCLC
CCRF-CEM leukemia = tested on: CCRF-CEM leukemia
SK-MEL-5 melanoma = tested on: SK-MEL-5 melanoma
OVCAR-5 ovarian = tested on: OVCAR-5 ovarian
RPMI-8226 leukemia = tested on: RPMI-8226 leukemia
HCC-2998 colon = tested on: HCC-2998 colon
PC-3 prostate = tested on: PC-3 prostate
A498 renal = tested on: A498 renal
MOLT-4 leukemia = tested on: MOLT-4 leukemia
HCT-116 colon = tested on: HCT-116 colon
OVCAR-4 ovarian = tested on: OVCAR-4 ovarian

SMILES	TGI (SW-620 colon)	TGI (SF-295 CNS)	TGI (HOP-62 NSCLC)	TGI (CCRF-CEM leukemia)	TGI (SK-MEL-5 melanoma)	TGI (OVCAR-5 ovarian)	TGI (RPMI-8226 leukemia)	TGI (HCC-2998 colon)	TGI (PC-3 prostate)	TGI (A498 renal)	TGI (MOLT-4 leukemia)	TGI (HCT-116 colon)	TGI (OVCAR-4 ovarian)	GI50 (SK-MEL-5 melanoma)	GI50 (OVCAR-5 ovarian)	GI50 (PC-3 prostate)	GI50 (MOLT-4 leukemia)
Cc1ccc(C)n2c1nc1ccccc12	> 100 µM	> 100 µM	> 100 µM	> 100 µM	> 100 µM	> 100 µM	> 100 µM	> 100 µM	> 100 µM	33.7 µM	> 100 µM						
COc1cccc(C2c3cc4c(cc3OC(NNS(=O)(=O)c3ccc(C)cc3)C2C)OCO4)c1OC (centres undefined)	> 100 µM	> 100 µM	9.06 µM	5.31 µM	19 µM	74.2 µM	6.86 µM	> 100 µM	92.4 µM	6.42 µM	9.02 µM	4.56 µM					
CCOC(=O)/C=C(/C(=O)OCC)n1ccc(=O)n(Cc2cnnn2COCCOC(C)=O)c1=O	14.2 µM	> 100 µM	> 100 µM	3.57 µM	38.2 µM	35.9 µM	51.2 µM	31.5 µM	34.2 µM	65 µM	23.4 µM	45.8 µM	41.5 µM				
CC(C)=CCC[C@@H](C)C1=C(O)C(Nc2ccccc2Cl)=C(C)C(=O)C1=O	> 75 µM	34.2 µM	> 64.2 µM	> 21.3 µM	42.9 µM	> 75 µM	> 55.8 µM	> 56.6 µM	> 64.2 µM	> 56.9 µM	> 57.5 µM	> 50.9 µM	> 75 µM				
C=C(C(=O)OC)[C@@H]1C[C@@H](OC(C)=O)C2=C[C@H](C[C@@]3(C)O[C@@H]3C3=CC(C)=C(O3)[C@H]1OC(C)=O)OC2=O	28.4 µM	88.5 µM	67.2 µM		29.7 µM	36.6 µM	21.4 µM	43 µM	> 100 µM	33.8 µM	6.72 µM	24.3 µM	> 100 µM				
CCOC(=O)c1nc2ccc(C(F)(F)F)cc2nc1NCc1ccc(OC)c(OC)c1	> 100 µM	> 100 µM	> 100 µM	> 100 µM	> 100 µM	> 100 µM	> 100 µM		> 100 µM	> 100 µM	> 100 µM	> 100 µM	> 100 µM				
COc1ccc(COC(=O)NCC(=O)NC(C)C(=O)NC(Cc2ccccc2)C(=O)OCc2ccccc2)cc1 (centres undefined)	> 100 µM	47.8 µM and 39.1 µM	54.2 µM and 49.4 µM	> 100 µM and 43.9 µM	26.8 µM and > 100 µM	> 100 µM	> 100 µM and 57.1 µM	64.3 µM and 37.4 µM	47.8 µM and > 100 µM	38.8 µM and > 100 µM	55.9 µM and 49.3 µM	> 100 µM	41.2 µM and 95.1 µM	13.8 µM and 56.3 µM	36.3 µM and > 100 µM	20 µM and > 100 µM	8.37 µM and 24.5 µM
CCCCc1ccc(Nc2nc(OC)c3ncn(C4CC(O)C(CO)O4)c3n2)cc1 (centres undefined)	39.8 µM	36.5 µM	94.7 µM	34.9 µM	33.8 µM	> 100 µM	71.9 µM	20.4 µM	37.5 µM	35.3 µM	36.7 µM	29.8 µM	35.9 µM				
CC(C)=CCCC(C)CCOS(=O)C(F)(F)F (centres undefined)	> 100 µM	86.8 µM	> 100 µM	> 100 µM	33.1 µM	47.8 µM	90.8 µM	27.5 µM	45.3 µM	63.7 µM	24.2 µM	30.3 µM	20.5 µM				
Cc1cccc2sc(-c3ccc(O)cc3)nc12	23.7 µM	29.1 µM		49.6 µM	20.6 µM	30.2 µM	44.2 µM		31.7 µM	20.4 µM	> 100 µM	28.9 µM	29.5 µM				
O=C1CCc2ccc(O)c(c2)Oc2ccc(cc2)C(Sc2ccccc2)CCO1 (centres undefined)	34.9 µM	38.2 µM	30.9 µM	> 100 µM	24.8 µM	35.3 µM	36.4 µM	32.9 µM	35.1 µM	31.8 µM	> 100 µM	29.8 µM	26.1 µM				
CC(C)(Cl)C(Br)CCC(Br)(CCl)C(Cl)CBr (centres undefined)	> 10 µM	> 10 µM	> 10 µM	> 10 µM	> 10 µM	> 10 µM	> 10 µM	> 10 µM	> 10 µM	> 10 µM	> 10 µM		> 10 µM				
COc1ccc(N=NC(=O)NC(CC(C)C)C(=O)NCC(=O)O)cc1 (centres undefined)	> 100 µM	> 100 µM	> 100 µM	> 100 µM	> 56.2 µM	> 100 µM	> 100 µM	> 87.5 µM	> 100 µM	> 100 µM	> 100 µM	> 100 µM	> 100 µM				
CC(=O)c1ccc2c(c1)CC1(C2)Cc2cc3c(c(C(=O)O)c2C1)CCC3 (centres undefined)	> 100 µM	> 100 µM	> 100 µM	> 100 µM	> 100 µM	> 100 µM	> 100 µM	> 100 µM	> 100 µM	> 100 µM	> 100 µM	> 100 µM	> 100 µM				
O=C(NNC(=S)NC1CCCCC1)C12CC3CC(CC(C3)C1)C2	> 100 µM	> 100 µM	> 100 µM	> 100 µM	> 100 µM	> 100 µM	> 100 µM	> 100 µM	> 100 µM	> 100 µM	> 100 µM	> 100 µM	> 100 µM				
N[C@@H]1CCN(c2c(F)cc3c(=O)c(C(=O)O)cn4c3c2Oc2cc3c(ccc5ccccc53)cc2-4)C1	> 100 µM	> 100 µM	> 100 µM	0.234 µM	> 40 µM	97 µM	> 100 µM		> 28.2 µM	> 44.8 µM		18.5 µM	> 100 µM				
CCN(CC)CCN(C)c1ccc(CO)c2c1C(=O)c1ccccc1S2=O (centres undefined)	3.63 µM	28 µM	8.71 µM	9.96 µM	6.52 µM	24.5 µM	11.8 µM	2.99 µM	46 µM	23.4 µM		3.97 µM	11.7 µM				
